Our source for the TGI and GI50 values is PubChem BioAssay (NCI).

“And” between values parts separate entries of the source, which are not always exact repeats. Equal entries are not always repeated.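 In this assay, cells in 96-well plates receive the compound at five concentrations for 48 hours. Endpoints are linearly interpolated between the surrounding concentrations. GI50 marks 50% less growth. TGI denotes the concentration required for complete inhibition of growth.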

The test system of the first assay is KM12 colon. Nature of the assay: NCI tumour cell line growth inhibition, 48 h.
`COc1ccc(Cn2c(=O)c(OC)c(C)c3cc4ccccc4cc32)cc1` came in with a TGI of over 100 µM.

The compound `CCOC(=O)Nc1cc2c(c(N)n1)N=C(c1ccc(OC)cc1)CN2` returned a TGI of over 100 µM.

For the compound `O=C1NC(=S)N/C1=C\c1cccs1`, the TGI is over 100 µM.

With `CC(C)(C)C1CCC(=O)/C(=C/CC2CC(=O)N(c3ccccc3)C(=O)C2)C1` (stereo not drawn), the TGI worked out at 33.6 µM.

The compound `C[C@@H](C(=O)O)N1C(c2ccco2)=C(/C(C=O)=C\c2ccco2)C(=O)/C1=C\c1ccco1` returned a TGI of over 100 µM.

In the next assay the test system is M14 melanoma. As to the kind of experiment: NCI tumour cell line growth inhibition, 48 h.
The compound `O=C1CS(=O)(=O)C(c2cccc(Oc3ccccc3)c2)N1c1ccc(Cl)cc1` (stereo not drawn) registered a TGI of 76.2 µM.

The compound `Cc1n(CC(C)C)c2c([n+]1C)C(=O)c1ccccc1C2=O` gave a TGI of 1.06 µM.

Turning to `Cc1cccc(Cl)c1NCC(O)CN1CCN(C)CC1` (stereo not drawn), the TGI is over 100 µM.

As to `C=C(CCOC)CCC1CCCCC(CN(C)C)C1=O` (stereo not drawn), the TGI is over 100 µM.

In the case of `ONC1=Nc2cc(Cl)ccc2C(=S)N2CSCC12` (stereo not drawn), the TGI was over 100 µM.

`Cc1nc2ccc(Br)cc2c(=O)n1-c1nnc(C(C)(C)C)s1`: the TGI was over 10 µM.

With `COc1cc2c(cc1O)c(O)cc1c3cc(OC)c(OC)cc3c[n+](C)c21`, the TGI is over 100 µM.

In turn, `CCOC(=O)c1sc(=S)n(-c2ccc(Cl)cc2)c1-n1cc(-c2ccccc2)c(C#N)c1N` had a TGI of over 100 µM.

For `COC1(OC)N=C(N)C2(C#N)C(c3ccccc3)NC3=C(CCC3)C12C#N` (stereo not drawn), the TGI is over 100 µM.

With `NC(N)=NS(=O)(=O)c1ccc(NNc2c3ccccc3nc3ccccc23)cc1`, the TGI is 26.8 µM.

The compound `COC(=O)[C@@H]1C[C@H]2OC(=O)CC[C@]2(C)O[C@H]1[C@H]1O[C@@](C)(O)CCC[C@H]1C` yielded a TGI of over 50 µM.

Take `CC(C)CCNC(=O)c1ccc(CNC(=O)/C=C/c2cccc(Oc3ccccc3)c2)cc1`: the TGI was over 100 µM.

Regarding `COc1cc2c(cc1OCCCCCCCCCCN1C(=O)c3cccc4cccc(c34)C1=O)N=C[C@@H]1CCCN1C2=O`, the TGI is 54.6 µM.

Compound `COc1ccc(Cn2c(=O)c(OC)c(C)c3cc4ccccc4cc32)cc1` yielded a TGI of over 100 µM.

Consider `CCOC(=O)Nc1cc2c(c(N)n1)N=C(c1ccc(OC)cc1)CN2`, for which the TGI came to 19.1 µM.

On to `O=C1NC(=S)N/C1=C\c1cccs1`, for which the TGI was over 100 µM.

As to `C[C@@H](C(=O)O)N1C(c2ccco2)=C(/C(C=O)=C\c2ccco2)C(=O)/C1=C\c1ccco1`, the TGI was over 100 µM.

The next assay concerns MDA-MB-231 breast. As to the kind of experiment: NCI tumour cell line growth inhibition, 48 h.
The compound `O=C1CS(=O)(=O)C(c2cccc(Oc3ccccc3)c2)N1c1ccc(Cl)cc1` (stereo not drawn) returned a TGI of over 100 µM.

Regarding `Cc1n(CC(C)C)c2c([n+]1C)C(=O)c1ccccc1C2=O`, the TGI was determined as 0.344 µM.

In turn, `Cc1cccc(Cl)c1NCC(O)CN1CCN(C)CC1` (stereo not drawn) yielded a TGI of over 100 µM.

`C=C(CCOC)CCC1CCCCC(CN(C)C)C1=O` (stereo not drawn) registered a TGI of over 100 µM.

`ONC1=Nc2cc(Cl)ccc2C(=S)N2CSCC12` (stereo not drawn) returned a TGI of over 100 µM.

Turning to `Cc1nc2ccc(Br)cc2c(=O)n1-c1nnc(C(C)(C)C)s1`, the TGI was over 10 µM.

Compound `COc1cc2c(cc1O)c(O)cc1c3cc(OC)c(OC)cc3c[n+](C)c21` displayed a TGI of over 67.9 µM.

Regarding `CCOC(=O)c1sc(=S)n(-c2ccc(Cl)cc2)c1-n1cc(-c2ccccc2)c(C#N)c1N`, the TGI was determined as 60.1 µM.

In the case of `COC1(OC)N=C(N)C2(C#N)C(c3ccccc3)NC3=C(CCC3)C12C#N` (stereo not drawn), the TGI was over 100 µM.

`NC(N)=NS(=O)(=O)c1ccc(NNc2c3ccccc3nc3ccccc23)cc1` registered a TGI of 37 µM.

Turning to `COC(=O)[C@@H]1C[C@H]2OC(=O)CC[C@]2(C)O[C@H]1[C@H]1O[C@@](C)(O)CCC[C@H]1C`, the TGI was over 50 µM.

Regarding `CC(C)CCNC(=O)c1ccc(CNC(=O)/C=C/c2cccc(Oc3ccccc3)c2)cc1`, the TGI was found to be 77.5 µM.

Compound `COc1cc2c(cc1OCCCCCCCCCCN1C(=O)c3cccc4cccc(c34)C1=O)N=C[C@@H]1CCCN1C2=O` had a TGI of 20.4 µM.

The compound `COc1ccc(Cn2c(=O)c(OC)c(C)c3cc4ccccc4cc32)cc1` yielded a TGI of over 100 µM.

`CCOC(=O)Nc1cc2c(c(N)n1)N=C(c1ccc(OC)cc1)CN2`: the GI50 was 0.00386 µM; the TGI is 0.392 µM and 0.0787 µM.

The compound `O=C1NC(=S)N/C1=C\c1cccs1` returned a TGI of over 100 µM.

With `CC(C)(C)C1CCC(=O)/C(=C/CC2CC(=O)N(c3ccccc3)C(=O)C2)C1` (stereo not drawn), the TGI is over 100 µM.

On to `C[C@@H](C(=O)O)N1C(c2ccco2)=C(/C(C=O)=C\c2ccco2)C(=O)/C1=C\c1ccco1`, for which the TGI is over 100 µM.

In a further assay the test system is NCI-H460 lung. Nature of the assay: NCI tumour cell line growth inhibition, 48 h.
As for `O=C1CS(=O)(=O)C(c2cccc(Oc3ccccc3)c2)N1c1ccc(Cl)cc1` (stereo not drawn), the TGI was found to be 35.8 µM.

With `Cc1n(CC(C)C)c2c([n+]1C)C(=O)c1ccccc1C2=O`, the TGI was determined as 1.26 µM.

`Cc1cccc(Cl)c1NCC(O)CN1CCN(C)CC1` (stereo not drawn) returned a TGI of over 100 µM.

Take `C=C(CCOC)CCC1CCCCC(CN(C)C)C1=O` (stereo not drawn): the TGI was over 100 µM.

As to `ONC1=Nc2cc(Cl)ccc2C(=S)N2CSCC12` (stereo not drawn), the TGI is over 100 µM.

In the case of `Cc1nc2ccc(Br)cc2c(=O)n1-c1nnc(C(C)(C)C)s1`, the TGI is over 10 µM.

With `COc1cc2c(cc1O)c(O)cc1c3cc(OC)c(OC)cc3c[n+](C)c21`, the TGI is over 100 µM.

`CCOC(=O)c1sc(=S)n(-c2ccc(Cl)cc2)c1-n1cc(-c2ccccc2)c(C#N)c1N` registered a TGI of over 100 µM.

Take `COC1(OC)N=C(N)C2(C#N)C(c3ccccc3)NC3=C(CCC3)C12C#N` (stereo not drawn): the TGI is over 100 µM.

`NC(N)=NS(=O)(=O)c1ccc(NNc2c3ccccc3nc3ccccc23)cc1` yielded a TGI of 23.4 µM.

Regarding `COC(=O)[C@@H]1C[C@H]2OC(=O)CC[C@]2(C)O[C@H]1[C@H]1O[C@@](C)(O)CCC[C@H]1C`, the TGI is over 50 µM.

Turning to `CC(C)CCNC(=O)c1ccc(CNC(=O)/C=C/c2cccc(Oc3ccccc3)c2)cc1`, the TGI was over 100 µM.

`COc1cc2c(cc1OCCCCCCCCCCN1C(=O)c3cccc4cccc(c34)C1=O)N=C[C@@H]1CCCN1C2=O` had a TGI of 78 µM.

In turn, `COc1ccc(Cn2c(=O)c(OC)c(C)c3cc4ccccc4cc32)cc1` yielded a TGI of 36.8 µM.

Consider `CCOC(=O)Nc1cc2c(c(N)n1)N=C(c1ccc(OC)cc1)CN2`, for which the GI50 is 0.012 µM and the TGI came out at 0.256 µM.

Consider `CC(C)(C)C1CCC(=O)/C(=C/CC2CC(=O)N(c3ccccc3)C(=O)C2)C1` (stereo not drawn), for which the TGI turned out to be 30.2 µM.

In another assay the test system is NCI-H522 lung. Nature of the assay: NCI tumour cell line growth inhibition, 48 h.
As to `O=C1CS(=O)(=O)C(c2cccc(Oc3ccccc3)c2)N1c1ccc(Cl)cc1` (stereo not drawn), the TGI was 68.9 µM.

On to `Cc1n(CC(C)C)c2c([n+]1C)C(=O)c1ccccc1C2=O`, for which the TGI stood at 0.0386 µM.

For the compound `Cc1cccc(Cl)c1NCC(O)CN1CCN(C)CC1` (stereo not drawn), the TGI was over 100 µM.

For the compound `C=C(CCOC)CCC1CCCCC(CN(C)C)C1=O` (stereo not drawn), the TGI was over 100 µM.

Compound `ONC1=Nc2cc(Cl)ccc2C(=S)N2CSCC12` (stereo not drawn) registered a TGI of over 100 µM.

Consider `Cc1nc2ccc(Br)cc2c(=O)n1-c1nnc(C(C)(C)C)s1`, for which the TGI is over 10 µM.

The compound `COc1cc2c(cc1O)c(O)cc1c3cc(OC)c(OC)cc3c[n+](C)c21` returned a TGI of 25.2 µM.

In turn, `CCOC(=O)c1sc(=S)n(-c2ccc(Cl)cc2)c1-n1cc(-c2ccccc2)c(C#N)c1N` displayed a TGI of 14.5 µM.

As to `COC1(OC)N=C(N)C2(C#N)C(c3ccccc3)NC3=C(CCC3)C12C#N` (stereo not drawn), the TGI was over 100 µM.

Consider `NC(N)=NS(=O)(=O)c1ccc(NNc2c3ccccc3nc3ccccc23)cc1`, for which the TGI came out at 17.5 µM.
